Experiment: Thermo Scientific Acclaim RSLC 120 C18, 100 × 2.1 mm, 2.2 µm, 30 °C, 0.2 to 0.48 mL/min, estimated dead time 1.1 min; A: 90% water + 10% methanol + 5 mM ammonium acetate; B: methanol + 5 mM ammonium acetate; gradient (min/%B) 0.1/1 3/39 14/99.9 16/99.9
Settings: stereoisomer not certain

LC retention time | SMILES
10.6 min | CCCCCC(=O)c1ccc(O)cc1O
8.86 min | O=C(c1ccc(OCCN2CCCCC2)cc1)c1c(-c2ccc(O)cc2)sc2cc(O)ccc12
2.34 min | CC1=CC(=O)NS(=O)(=O)O1
8.27 min | CCC(C)C(=O)OC1CC(O)C=C2C=CC(C)C(CCC(O)CC(O)CC(=O)O)C21 (stereo not drawn)
4.67 min | CNC(=C[N+](=O)[O-])NCCSCc1ccc(CN(C)C)o1
7.46 min | Cc1onc(-c2ccccc2)c1-c1ccc(S(N)(=O)=O)cc1
6.38 min | CC(C)(C#N)c1cc(Cn2cncn2)cc(C(C)(C)C#N)c1
7.69 min | CCc1cccc(CC)c1N(COC)C(=O)C(=O)O
4.56 min | CC(=O)Nc1cc(S(=O)(=O)O)cc2cc(S(=O)(=O)O)c(N=Nc3ccccc3)c(O)c12
8.79 min | CCOC(=O)C1=CC(OC(CC)CC)C(NC(C)=O)C(N)C1 (stereo not drawn)
5.61 min | CCC1(O)C(=O)OCc2c1cc1n(c2=O)Cc2cc3c(CN(C)C)c(O)ccc3nc2-1 (stereo not drawn)
4.36 min | O=C1NC(=O)C2CC=CCC12 (stereo not drawn)
7.04 min | CCCC(CCC)C(=O)O
6.16 min | COCCN(C(=O)CS(=O)(=O)O)c1c(C)cccc1C
3.09 min | O=C1NS(=O)(=O)c2ccccc21
4.46 min | CC1(C)SC2C(NC(=O)C(N)c3ccccc3)C(=O)N2C1C(=O)O (stereo not drawn)
6.79 min | CC(C(=O)O)c1cccc(Oc2ccccc2)c1 (stereo not drawn)
3.58 min | O=C(O)c1ccccc1O
1.46 min | CC(=O)NCCCS(=O)(=O)O
8.29 min | Cc1cccc(Nc2ccncc2S(=O)(=O)NC(=O)NC(C)C)c1
11.5 min | CCC(=C(c1ccccc1)c1ccc(OCCN(C)C)cc1)c1ccc(OC)c(O)c1

LC retention time | SMILES
14.2 min | CCCCCCCCCCCCOS(=O)(=O)c1ccccc1
2.88 min | O=C(O)c1ccccc1
7.49 min | Cc1cccc(C)c1NC(=O)C1CCCCN1C (stereo not drawn)
8.19 min | CCc1cccc(C)c1N(C(=O)CS(=O)(=O)O)C(C)COC (stereo not drawn)
6.73 min | CCCCNc1cc(C(=O)O)cc(S(N)(=O)=O)c1Oc1ccccc1
8.26 min | O=C1NC(=O)C(c2ccccc2)(c2ccccc2)N1
12.2 min | COc1ccc(C(=O)c2ccccc2O)cc1
8.42 min | CC12CCC3c4ccc(O)cc4CCC3C1CC(O)C2=O (stereo not drawn)
4.51 min | Cc1c(NC=O)c(=O)n(-c2ccccc2)n1C
14.1 min | C=C(c1ccc(C(=O)O)cc1)c1cc2c(cc1C)C(C)(C)CCC2(C)C
5.7 min | O=C(O)Cc1cccc2ccccc12
7.94 min | COC=C(C(=O)O)c1ccccc1Oc1cc(Oc2ccccc2C#N)ncn1
8.17 min | CCCCC(=O)N(Cc1ccc(-c2ccccc2-c2nn[nH]n2)cc1)C(C(=O)O)C(C)C (stereo not drawn)
3.34 min | Nc1nc2c(ncn2CCC(CO)CO)c(=O)[nH]1
11.2 min | CC(C(=O)O)c1ccc(C2CCCCC2)c2ccccc12 (stereo not drawn)
4.33 min | CC(=O)Nc1ccc(S(=O)(=O)Nc2cc(C)on2)cc1
7.82 min | CC12CCC3c4ccc(O)cc4CCC3C1CC(O)C2O (stereo not drawn)
10.1 min | CCCCC1=NC2(CCCC2)C(=O)N1Cc1ccc(-c2ccccc2-c2nn[nH]n2)cc1
10.7 min | CCCCN1CCCCC1C(=O)Nc1c(C)cccc1C (stereo not drawn)
8.24 min | CS(=O)(=O)Nc1ccc([N+](=O)[O-])cc1Oc1ccccc1
5.01 min | O=c1nccc[nH]1

LC retention time | SMILES
2.88 min | COc1cc(S(=O)(=O)O)c(C)cc1N=Nc1c(O)ccc2cc(S(=O)(=O)O)ccc12
6.67 min | CC(C)(C)c1n[nH]c(=O)n(N)c1=O
6.77 min | CC(C(=O)O)c1cccc(C(=O)c2ccccc2)c1 (stereo not drawn)
9.8 min | Cc1ccc(C(C)NC(=O)C(NC(=O)OC(C)C)C(C)C)cc1 (stereo not drawn)
5.74 min | CCNC1CN(CCCOC)S(=O)(=O)c2sc(S(N)(=O)=O)cc21 (stereo not drawn)
5.12 min | CC(C)(C)NCC(O)COc1cccc2c1CC(O)C(O)C2 (stereo not drawn)
5.09 min | COc1cc(NS(=O)(=O)c2ccc(NC(C)=O)cc2)nc(OC)n1
10.6 min | CCc1ccc(CCOc2ccc(CC3SC(=O)NC3=O)cc2)nc1 (stereo not drawn)
4.63 min | CCNC1CC(C)S(=O)(=O)c2sc(S(N)(=O)=O)cc21 (stereo not drawn)
5.57 min | CC(C)N(C(=O)C(=O)O)c1ccccc1
10 min | COc1cc(C=CC(=O)CC(=O)C=Cc2ccc(O)c(OC)c2)ccc1O
1.35 min | CCOC1OC(C(=O)O)C(O)C(O)C1O (stereo not drawn)
11.4 min | CCCCCCCCCC(Oc1ccccc1)C(=O)O (stereo not drawn)
7.49 min | CCCNC(C)C(=O)Nc1ccccc1C (stereo not drawn)
4.92 min | CCC(CC)OC1C=C(C(=O)O)CC(N)C1NC(C)=O (stereo not drawn)
6.52 min | c1ccc2[nH]c(-c3cscn3)nc2c1
11.5 min | CCC1OC(=O)C(C)C(OC2CC(C)(OC)C(O)C(C)O2)C(C)C(OC2OC(C)CC(N(C)C)C2O)C(C)(O)CC(C)C(=NOCOCCOC)C(C)C(O)C1(C)O (stereo not drawn)
3.68 min | CC1(C)SC2C(NC(=O)C(N)c3ccc(O)cc3)C(=O)N2C1C(=O)O (stereo not drawn)
4.12 min | O=S(=O)(O)NC1CCCCC1
4.89 min | Cc1c(N(C)CS(=O)(=O)O)c(=O)n(-c2ccccc2)n1C
5.44 min | O=C(O)c1ccccc1S

SMILES | LC retention time
NCC1(CC(=O)O)CCCCC1 | 4.08 min
CCC1(c2cccc(O)c2)CCCCN(C)C1 (stereo not drawn) | 6.47 min
C=CCC1(C(C)CCC)C(=O)NC(=O)NC1=O (stereo not drawn) | 8.39 min
Oc1ccccc1-c1ccccc1 | 9.09 min
CC1C=CC=CCCC=CC=CC=CC=CC(OC2OC(C)C(O)C(N)C2O)CC2OC(O)(CC(O)C(O)CCC(O)CC(O)CC(O)CC(=O)OC(C)C(C)C1O)CC(O)C2C(=O)O (stereo not drawn) | 11.8 min
CC(C)N1C(=O)c2ccccc2NS1(=O)=O | 4.49 min
CCNc1nc(NC(C)C)[nH]c(=O)n1 | 6 min
C#CC1(O)CCC2C3CCC4=CC(=O)CCC4=C3C=CC21CC (stereo not drawn) | 9.64 min
CSc1nnc(C(C)(C)C)c(=O)n1N | 7.04 min
C=CCC1(C(C)C#CCC)C(=O)NC(=O)N(C)C1=O (stereo not drawn) | 9.02 min
C=C(C)C1Cc2c(ccc3c2OC2COc4cc(OC)c(OC)cc4C2C3=O)O1 (stereo not drawn) | 10.4 min
CC1CC2(C)C(CCC3C4CCC(O)C4(C)CCC32)CC1=O (stereo not drawn) | 14.4 min
O=c1[nH]c2c(c(=O)n1C1CCCCC1)CCC2 | 8.23 min
NC(=O)N=C(N)N | 1.73 min
CCC(C)C1(CC)C(=O)NC(=O)NC1=O (stereo not drawn) | 6.83 min
Cc1ccc(NC(=O)NC(C)(C)c2ccccc2)cc1 | 9.64 min
COc1cc(OC)nc(NC(=O)NS(=O)(=O)c2cc(NC=O)ccc2C(=O)N(C)C)n1 | 5.62 min
CC12CCC(=O)C=C1C(O)CC1C2CCC2(C)C(O)CCC12 (stereo not drawn) | 6.61 min
CNC(=O)CSP(=S)(OC)OC | 5.25 min
COC(=O)c1ccccc1CS(=O)(=O)NC(=O)Nc1nc(OC)cc(OC)n1 | 7.66 min
CC1=NNC(=O)N(N=Cc2cccnc2)C1 | 4.13 min
CCNC(=O)NC(=O)C(C#N)=NOC | 5.58 min
CNC(=O)N(C)c1nnc(C(C)(C)C)s1 | 7.21 min
COc1cc(OC)nc(NC(=O)NS(=O)(=O)c2ncccc2C(=O)N(C)C)n1 | 4.32 min
CNC(=O)N(C)c1nc2ccccc2s1 | 8.23 min

SMILES | LC retention time
CCC1(O)CCC2C3CCC4=CC(=O)CCC4C3CCC21C (stereo not drawn) | 14 min
CC12C=CC3=C4CCC(=O)C=C4CCC3C1CCC2O (stereo not drawn) | 9.17 min
CC1=C(C(=O)Nc2ccccc2)SCCO1 | 7.42 min
CC(C)C1(C)N=C(c2nc3ccccc3cc2C(=O)O)NC1=O (stereo not drawn) | 4.85 min
CNC(=N[N+](=O)[O-])NCC1CCOC1 (stereo not drawn) | 3.59 min
CCOP(=S)(NC(C)C)Oc1ccccc1C(=O)OC(C)C (stereo not drawn) | 11.2 min
CC12CCC3C(CCC4=CC(=O)CCC43C)C1CCC2=O (stereo not drawn) | 13.1 min
Cc1ccccc1C(=O)Nc1cccc(OC(C)C)c1 | 9.58 min
CCNP(=S)(OC)OC(C)=CC(=O)OC(C)C (stereo not drawn) | 9.75 min
Cc1occc1C(=O)Nc1ccccc1 | 7.54 min
CCCC(C)C1(CC)C(=O)NC(=O)NC1=O (stereo not drawn) | 7.92 min
COc1ccc(-c2ccccc2)cc1NNC(=O)OC(C)C | 9.82 min
CS(=O)(=O)c1ccc(C(=O)C2C(=O)CCCC2=O)c([N+](=O)[O-])c1 | 2.13 min
COC(=O)C(C)=COP(=S)(OC)OC | 5.12 min
CC12CCC(O)CC1CCC1C2CCC2(C)C1CCC2(C)O (stereo not drawn) | 14 min
CCCCc1c(C)nc(N(C)C)[nH]c1=O | 7.97 min
CC1=CC(=O)CC2CCC3C4CCC(O)C4(C)CCC3C12C (stereo not drawn) | 13.8 min
Cc1cc(C)cc(C(=O)N(NC(=O)c2ccc3c(c2C)CCCO3)C(C)(C)C)c1 | 9.91 min
CC(C)(C)c1cc(C(C)(C)C)c(O)c(C(C)(C)C)c1 | 14.6 min
CCCCc1c(C)nc(NCC)[nH]c1=O | 8.39 min
CCc1cnc(C2=NC(C)(C(C)C)C(=O)N2)c(C(=O)O)c1 (stereo not drawn) | 4.32 min
CCc1ccc(C(=O)NN(C(=O)c2cc(C)cc(C)c2)C(C)(C)C)cc1 | 10.4 min
CC1(c2ccc(Oc3ccccc3)cc2)OC(=O)N(Nc2ccccc2)C1=O (stereo not drawn) | 11 min
CCCCCc1cc(O)c2c(c1)OC(C)(C)C1CCC(CO)=CC21 (stereo not drawn) | 12.3 min
CNC(=O)Oc1cccc2ccccc12 | 7.42 min

From the RepoRT retention time repository
